Experimental data: ChEMBL document CHEMBL1130965, “Inhibitors of farnesyl protein transferase. Synthesis and biological activity of amide and cyanoguanidine derivatives containing a 5,11-dihydro[1]benzthiepin, benzoxepin, and benzazepin [4,3-b]pyridine ring system” (Bioorg Med Chem Lett, 1998)

Tests used:
[1] = target: T1, Protein farnesyltransferase (Homo sapiens, UniProt P49354+P49356); assay: In vitro FPT potency by measuring the ability to inhibit the transfer of [3H]farnesyl from farnesyl pyrophosphate to H-Ras-CLVS.; format: protein-complex assay
[2] = target: T1, Protein farnesyltransferase; assay: In vitro inhibition of Ras processing in COS cells; format: functional, cell-based
[3] = target: T1, Protein farnesyltransferase; assay: In vitro inhibition of Ras processing by COS cells at 20 uM; format: functional, cell-based
[4] = target: T1, Protein farnesyltransferase; assay: In vitro inhibition of [H]-farnesyl incorporation into H-Ras-CLVS by farnesyl transferase at 1.3 uM; format: protein-complex assay
[5] = target: T1, Protein farnesyltransferase; assay: In vitro inhibition of [3H]farnesyl incorporation into H-Ras-CLVS by farnesyl transferase at 1.2 uM; format: protein-complex assay
[6] = target: T1, Protein farnesyltransferase; assay: In vitro inhibition of [3H]farnesyl incorporation into H-Ras-CLVS by farnesyl transferase at 0.042 uM; format: protein-complex assay

Compound	IC50 [1]	also measured
O=C(Cc1ccncc1)N1CCN(C2c3ccc(Cl)cc3S(=O)(=O)Cc3cccnc32)CC1 (stereo not given)	1 µM	
O=C(Cc1cc[n+]([O-])cc1)N1CCN(C2c3ccc(Cl)cc3SCc3cccnc32)CC1 (stereo not given)	0.079 µM	IC50 [2]: 10 µM
N#CN/C(=N\Cc1ccncc1)N1CCN(C2c3ccc(Cl)cc3SCc3cccnc32)CC1 (stereo not given)	0.061 µM	
O=C(Cc1cc[n+]([O-])cc1)N1CCN(C2c3ccc(Cl)cc3S(=O)(=O)Cc3cccnc32)CC1 (stereo not given)	3.4 µM	
N#CN/C(=N\Cc1ccc[n+]([O-])c1)N1CCN(C2c3ccc(Cl)cc3SCc3cccnc32)CC1 (stereo not given)	0.14 µM	
CN1Cc2cccnc2C(N2CCN(C(=O)Cc3ccncc3)CC2)c2ccc(Cl)cc21 (stereo not given)	0.84 µM	inhibition [3]: 0%
CN1Cc2cccnc2C(N2CCN(/C(=N/Cc3ccncc3)NC#N)CC2)c2ccc(Cl)cc21 (stereo not given)	0.14 µM	inhibition [3]: 10%
CN1Cc2cccnc2C(N2CCN(C(=O)Cc3cc[n+]([O-])cc3)CC2)c2ccc(Cl)cc21 (stereo not given)	2.7 µM	IC50 [2]: 20 µM
O=C(Cc1ccncc1)N1CCN(C2c3ccc(Cl)cc3SCc3cccnc32)CC1 (stereo in doubt; 40)	1 µM	
CN1Cc2cccnc2C(N2CCN(C(=O)CC3CCNCC3)CC2)c2ccc(Cl)cc21 (stereo not given)		inhibition [4]: 10%
O=C(Cc1ccncc1)N1CCC(=C2c3ccc(Cl)cc3S(=O)(=O)Cc3cccnc32)CC1	0.56 µM	
O=C(Cc1cc[n+]([O-])cc1)N1CCC(=C2c3ccc(Cl)cc3OCc3cc(Br)cnc32)CC1	0.11 µM	
O=C(Cc1cc[n+]([O-])cc1)N1CCC(=C2c3ccc(Cl)cc3S(=O)(=O)Cc3cccnc32)CC1		inhibition [5]: 30%
NC(=O)N1CCC(CC(=O)N2CCC(=C3c4ccc(Cl)cc4S(=O)(=O)Cc4cccnc43)CC2)CC1		inhibition [5]: 35%
N#CN/C(=N\Cc1ccncc1)N1CCC(=C2c3ccc(Cl)cc3OCc3cccnc32)CC1		inhibition [6]: 25%
O=C(Cc1ccncc1)N1CCN(C2c3ccc(Cl)cc3SCc3cccnc32)CC1 (stereo in doubt; 36)	0.032 µM	
O=C(CC1CCNCC1)N1CCC(=C2c3ccc(Cl)cc3S(=O)(=O)Cc3cccnc32)CC1		inhibition [5]: 28%

Now from value to compound, other results behind:

IC50 [1]	Compound	also measured
0.59 µM	O=C(CC1CCNCC1)N1CCC(=C2c3ccc(Cl)cc3SCc3cccnc32)CC1	
0.038 µM	N#CN/C(=N\Cc1ccc[n+]([O-])c1)N1CCC(=C2c3ccc(Cl)cc3SCc3cccnc32)CC1	inhibition [3]: 26%
1.52 µM	O=C(Cc1cc[n+]([O-])cc1)N1CCC(=C2c3ccc(Cl)cc3OCc3cccnc32)CC1	inhibition [3]: 41%
2.1 µM	CN1CCC(CC(=O)N2CCN(C3c4ccc(Cl)cc4SCc4cccnc43)CC2)CC1 (stereo not given)	
0.62 µM	O=C(CSc1cc[n+]([O-])cc1)N1CCC(=C2c3ccc(Cl)cc3SCc3cccnc32)CC1	IC50 [2]: 5 µM
0.043 µM	N#CN=C(NCc1ccncc1)N1CCC(=C2c3ccc(Cl)cc3SCc3cccnc32)CC1	IC50 [2]: 1.7 µM
0.52 µM	O=C(Cc1cc[n+]([O-])cc1)N1CCC(=C2c3ccc(Cl)cc3SCc3cccnc32)CC1	IC50 [2]: 10 µM
1.12 µM	NC(=O)N1CCC(CC(=O)N2CCN(C3c4ccc(Cl)cc4SCc4cccnc43)CC2)CC1 (stereo not given)	
0.92 µM	NC(=O)N1CCC(CC(=O)N2CCC(=C3c4ccc(Cl)cc4SCc4cccnc43)CC2)CC1	IC50 [2]: 3.8 µM
0.19 µM	O=C(Cc1ccncc1)N1CCC(=C2c3ccc(Cl)cc3SCc3cccnc32)CC1	IC50 [2]: 4.2 µM
1.79 µM	CN1CCC(CC(=O)N2CCC(=C3c4ccc(Cl)cc4SCc4cccnc43)CC2)CC1	
1.1 µM	O=C(CC1CCNCC1)N1CCN(C2c3ccc(Cl)cc3SCc3cccnc32)CC1 (stereo not given)	
